Measured values as given in patent US10945992B1, “Dosage forms of rofecoxib and related methods” (Tremeau Pharmaceuticals, Inc., priority 2019, dated 2021).
Like-named read-outs stand apart in the source and are kept apart here.

Experiment: TRM-201-PK-102 single-dose four-period crossover pharmacokinetic study, fasted healthy subjects
Format: in vivo, human
Conditions: human, plasma, oral
Method: A Single-Dose, Open-Label, Phase 1, Four-Period Crossover Pharmacokinetic Study of TRM-201 (Rofecoxib) 12.5 mg, 17.5 mg, 20 mg and 25 mg Administered to Healthy Subjects in a Fasting State, with Comparison to Historical Pharmacokinetic Parameters of Previously Marketed Rofecoxib (“TRM-201-PK-102” or “102 PK Study”)
This was a single-center, open-label four-period crossover PK study of TRM-201. The study included 24 subjects who received TRM-201 as a single dose of 12.5 mg, 17.5 mg, 20 mg and 25 mg to assess the PK of TRM-201 in healthy volunteers under fasted conditions. Subjects were randomized to one of four treatment sequences. The PK data from the current study along with the data from the TRM-201-PK-101 study (Example 4) was used to compare to historical pharmacokinetic parameters of previously marketed rofecoxib, all in a fasted state.
In each of the four dosing periods, subjects fasted overnight for at least 10 hours before study drug dosing. While fasting, subjects had nothing to eat and only water to drink. Water was permitted as desired, except for the period between 1 hour before and 1 hour after study drug dosing (excepting as permitted for dosing). After the 2-hour PK blood sample, subjects were allowed one 250-mL cup of clear apple juice. After the 4-hour PK blood sample, subjects were served a light lunch. Following the light lunch, subjects received standardized meals according to the clinic's standard procedures that were scheduled at consistent times and at least 15 minutes before or 15 minutes after PK sampling time points. Blood was withdrawn for PK analysis at predefined time points. For each dosing period the last time point was 120 hours after dosing with study drug (Day 6). After the 120 hour PK sample, the EOP procedures was completed, subjects remained in-clinic for the in-between dose period day (Days 7, 14, and 21) and began the next dosing period starting with an overnight fast for at least 10 hours on Day −1 of the subsequent dosing period. Pharmacokinetic and safety endpoints were evaluated.
The study drug, TRM-201, was an immediate-release tablet that contained 12.5 mg rofecoxib, 17.5 mg rofecoxib, 20 mg rofecoxib or 25 mg rofecoxib. The 7.25-mm diameter tablets were off-white, round, and uncoated with no markings. TRM-201 tablets were for oral administration.
For each sample, approximately 3 mL of blood were drawn. The samples were obtained by a straight stick or via an in-dwelling intravenous (IV) catheter in a forearm vein. Additional details for the collection, processing, storage, and shipping of PK samples were provided in the study manual.
Pharmacokinetic samples will be analyzed using a validated assay for rofecoxib in human plasma. Assay results and validation details will be provided in a separate bioanalytical report. The following PK parameters for rofecoxib will be calculated as primary endpoints using standard noncompartmental methods: AUC0-∞ and Cmax. Secondary endpoints include Tmax, and t1/2. Additional PK parameters (e.g., CL/F, and Vd/F) will also be calculated using standard noncompartmental methods.
Individual plasma concentrations for rofecoxib and PK sampling time deviation data will be presented in a data listing. Plasma concentration data will be summarized by time point using the following descriptive statistics: number of subjects, arithmetic mean, SD, coefficient of variation (CV), geometric mean, natural-log-scale SD, geometric CV, median, minimum, and maximum. Individual plasma concentration versus actual time profiles were presented on both linear and semilogarithmic scales. Additionally, arithmetic mean concentration versus scheduled time profiles were presented on linear scales and geometric means on semilogarithmic scales.
The PK parameters of rofecoxib were analyzed based on the actual sampling times. […]

[1] = 12.5 mg, read-out: arithmetic mean plasma concentration
[2] = 12.5 mg, read-out: geometric mean plasma concentration
[3] = 17.5 mg, read-out: geometric mean plasma concentration

With CS(=O)(=O)c1ccc(C2=C(c3ccccc3)C(=O)OC2)cc1 [TRM-201, 4-[4-(methylsulfonyl)phenyl]-3-phenyl-2(5H)-furanone] the Cmax (12.5 mg, 102 study, body weight 77.1-90 kg, read-out: arithmetic mean Cmax) was 127 ng/mL, the AUC(0-inf) (12.5 mg, 102 study, body weight 77.1-90 kg, read-out: geometric mean AUC0-∞) was 1690 ng·h/mL and the Cmax (12.5 mg, 102 study, body weight 77.1-90 kg, read-out: geometric mean Cmax) was 125 ng/mL. The AUC(0-inf) (12.5 mg, 102 study, non-Hispanic or non-Latino subjects, read-out: arithmetic mean AUC0-∞) was 1820 ng·h/mL, the Cmax (12.5 mg, 102 study, non-Hispanic or non-Latino subjects, read-out: arithmetic mean Cmax) was 146 ng/mL and the AUC(0-inf) (12.5 mg, 102 study, non-Hispanic or non-Latino subjects, read-out: geometric mean AUC0-∞) was 1680 ng·h/mL. It also gave a Cmax (12.5 mg, 102 study, non-Hispanic or non-Latino subjects, read-out: geometric mean Cmax) of 141 ng/mL, a concentration at 15 minutes [1] of 1.03 ng/mL and a concentration at 15 minutes [2] of 0.529 ng/mL. The concentration at 45 minutes [1] was 56.8 ng/mL, the concentration at 45 minutes [2] was 33.9 ng/mL and the AUC(0-inf) (17.5 mg, 102 study only, read-out: arithmetic mean AUC0-∞) was 3290 ng·h/mL. The Cmax (17.5 mg, 102 study only, read-out: arithmetic mean Cmax) was 236 ng/mL, the AUC(0-inf) (17.5 mg, 102 study only, read-out: geometric mean AUC0-∞) was 3110 ng·h/mL and the Cmax (17.5 mg, 102 study only, read-out: geometric mean Cmax) was 224 ng/mL. The AUC(0-inf) (17.5 mg, 102 study, 18-40 years, read-out: arithmetic mean AUC0-∞) was 2820 ng·h/mL, the Cmax (17.5 mg, 102 study, 18-40 years, read-out: arithmetic mean Cmax) was 237 ng/mL and the AUC(0-inf) (17.5 mg, 102 study, 18-40 years, read-out: geometric mean AUC0-∞) was 2750 ng·h/mL. It also gave a Cmax (17.5 mg, 102 study, 18-40 years, read-out: geometric mean Cmax) of 229 ng/mL, an AUC(0-inf) (17.5 mg, 102 study, 41-52 years, read-out: arithmetic mean AUC0-∞) of 3520 ng·h/mL and a Cmax (17.5 mg, 102 study, 41-52 years, read-out: arithmetic mean Cmax) of 232 ng/mL. It also gave an AUC(0-inf) (17.5 mg, 102 study, 41-52 years, read-out: geometric mean AUC0-∞) of 3160 ng·h/mL, a Cmax (17.5 mg, 102 study, 41-52 years, read-out: geometric mean Cmax) of 213 ng/mL and an AUC(0-inf) (17.5 mg, 102 study, 53-60 years, read-out: arithmetic mean AUC0-∞) of 3510 ng·h/mL. The Cmax (17.5 mg, 102 study, 53-60 years, read-out: arithmetic mean Cmax) was 239 ng/mL, the AUC(0-inf) (17.5 mg, 102 study, 53-60 years, read-out: geometric mean AUC0-∞) was 3470 ng·h/mL and the Cmax (17.5 mg, 102 study, 53-60 years, read-out: geometric mean Cmax) was 230 ng/mL. It also gave an AUC(0-inf) (17.5 mg, 102 study, Black or African-American subjects, read-out: arithmetic mean AUC0-∞) of 2840 ng·h/mL, a Cmax (17.5 mg, 102 study, Black or African-American subjects, read-out: arithmetic mean Cmax) of 217 ng/mL and an AUC(0-inf) (17.5 mg, 102 study, Black or African-American subjects, read-out: geometric mean AUC0-∞) of 2800 ng·h/mL. For the same compound, the Cmax (17.5 mg, 102 study, Black or African-American subjects, read-out: geometric mean Cmax) was 211 ng/mL, the AUC(0-inf) (17.5 mg, 102 study, Hispanic or Latino subjects, read-out: arithmetic mean AUC0-∞) was 3520 ng·h/mL and the Cmax (17.5 mg, 102 study, Hispanic or Latino subjects, read-out: arithmetic mean Cmax) was 258 ng/mL. It also gave an AUC(0-inf) (17.5 mg, 102 study, Hispanic or Latino subjects, read-out: geometric mean AUC0-∞) of 3330 ng·h/mL, a Cmax (17.5 mg, 102 study, Hispanic or Latino subjects, read-out: geometric mean Cmax) of 243 ng/mL and an AUC(0-inf) (17.5 mg, 102 study, White subjects, read-out: arithmetic mean AUC0-∞) of 3400 ng·h/mL. For the same compound, the Cmax (17.5 mg, 102 study, White subjects, read-out: arithmetic mean Cmax) was 241 ng/mL, the AUC(0-inf) (17.5 mg, 102 study, White subjects, read-out: geometric mean AUC0-∞) was 3200 ng·h/mL and the Cmax (17.5 mg, 102 study, White subjects, read-out: geometric mean Cmax) was 228 ng/mL. For the same compound, the AUC(0-inf) (17.5 mg, 102 study, body weight 47-70 kg, read-out: arithmetic mean AUC0-∞) was 3180 ng·h/mL, the Cmax (17.5 mg, 102 study, body weight 47-70 kg, read-out: arithmetic mean Cmax) was 261 ng/mL and the AUC(0-inf) (17.5 mg, 102 study, body weight 47-70 kg, read-out: geometric mean AUC0-∞) was 2930 ng·h/mL. The Cmax (17.5 mg, 102 study, body weight 47-70 kg, read-out: geometric mean Cmax) was 242 ng/mL, the AUC(0-inf) (17.5 mg, 102 study, body weight 70.1-77 kg, read-out: arithmetic mean AUC0-∞) was 3890 ng·h/mL and the Cmax (17.5 mg, 102 study, body weight 70.1-77 kg, read-out: arithmetic mean Cmax) was 254 ng/mL. It also gave an AUC(0-inf) (17.5 mg, 102 study, body weight 70.1-77 kg, read-out: geometric mean AUC0-∞) of 3730 ng·h/mL, a Cmax (17.5 mg, 102 study, body weight 70.1-77 kg, read-out: geometric mean Cmax) of 246 ng/mL and an AUC(0-inf) (17.5 mg, 102 study, body weight 77.1-90 kg, read-out: arithmetic mean AUC0-∞) of 2910 ng·h/mL. For the same compound, the Cmax (17.5 mg, 102 study, body weight 77.1-90 kg, read-out: arithmetic mean Cmax) was 200 ng/mL, the AUC(0-inf) (17.5 mg, 102 study, body weight 77.1-90 kg, read-out: geometric mean AUC0-∞) was 2850 ng·h/mL and the Cmax (17.5 mg, 102 study, body weight 77.1-90 kg, read-out: geometric mean Cmax) was 194 ng/mL. The AUC(0-inf) (17.5 mg, 102 study, non-Hispanic or non-Latino subjects, read-out: arithmetic mean AUC0-∞) was 3050 ng·h/mL, the Cmax (17.5 mg, 102 study, non-Hispanic or non-Latino subjects, read-out: arithmetic mean Cmax) was 214 ng/mL and the AUC(0-inf) (17.5 mg, 102 study, non-Hispanic or non-Latino subjects, read-out: geometric mean AUC0-∞) was 2910 ng·h/mL. The Cmax (17.5 mg, 102 study, non-Hispanic or non-Latino subjects, read-out: geometric mean Cmax) was 207 ng/mL, the concentration at 15 minutes [3] was 0.669 ng/mL and the concentration at 45 minutes [3] was 51.6 ng/mL.
